Assay results: the NIST ThermoML archive (doi:10.1021/je060343y)

How the values were obtained:
[1] = φn = volume fraction of the nth substance listed; details: 101 kPa, Liquid
[2] = 101 kPa, Liquid

CNC(C)=O [N-methylacetamide] + CCOC(C)=O
[1]
Details	mass density [kg/m3]	speed of sound [m/s]
303.15 K, φ1 = 0.0538	893.87	1132
303.15 K, φ1 = 0.1843	903.06	1167
303.15 K, φ1 = 0.2972	910.76	1197
303.15 K, φ1 = 0.3991	917.49	1223
303.15 K, φ1 = 0.4982	923.67	1248
303.15 K, φ1 = 0.594	929.3	1271
303.15 K, φ1 = 0.6955	935.03	1295
303.15 K, φ1 = 0.7437	937.68	1306
303.15 K, φ1 = 0.9463	948.19	1354
303.15 K, φ1 = 1	951.3	1367
308.15 K, φ1 = 0.0537	887.58	1114
308.15 K, φ1 = 0.1841	896.86	1149
308.15 K, φ1 = 0.2969	904.58	1180
308.15 K, φ1 = 0.3988	911.43	1208
308.15 K, φ1 = 0.4979	917.94	1234
308.15 K, φ1 = 0.5937	923.93	1259
308.15 K, φ1 = 0.6952	930.02	1284
308.15 K, φ1 = 0.7434	932.86	1296
308.15 K, φ1 = 0.9488	943.96	1348
308.15 K, φ1 = 1	945.9	1362
313.15 K, φ1 = 0.0534	880.97	1097
313.15 K, φ1 = 0.1833	891.3	1132
313.15 K, φ1 = 0.2958	899.84	1161
313.15 K, φ1 = 0.3976	907.15	1188
313.15 K, φ1 = 0.4966	913.79	1214
313.15 K, φ1 = 0.5924	920.09	1238
313.15 K, φ1 = 0.6941	926.71	1263
313.15 K, φ1 = 0.7431	929.67	1274
313.15 K, φ1 = 0.946	941.22	1322
313.15 K, φ1 = 1	943.6	1334
318.15 K, φ1 = 0.0533	875.13	1074
318.15 K, φ1 = 0.1828	886.1	1113
318.15 K, φ1 = 0.2951	894.79	1144
318.15 K, φ1 = 0.3968	902.46	1172
318.15 K, φ1 = 0.4958	909.37	1198
318.15 K, φ1 = 0.5916	915.67	1223
318.15 K, φ1 = 0.6934	922.12	1249
318.15 K, φ1 = 0.7418	925.21	1261
318.15 K, φ1 = 0.9458	937.26	1309
318.15 K, φ1 = 1	939.9	1319

CCOC(=O)CC#N [ethyl cyanoacetate]
[2]
Details	mass density [kg/m3]	speed of sound [m/s]
303.15 K	1051.4	1397
308.15 K	1046.5	1385
313.15 K	1040.8	1368
318.15 K	1034.7	1359

CCOC(C)=O [ethyl acetate] + CNC(C)=O
[1], φ2 = 0
Details	mass density [kg/m3]	speed of sound [m/s]
303.15 K	888.9	1119
308.15 K	882.6	1098
313.15 K	875.9	1081
318.15 K	869.6	1058

CNC(C)=O [N-methylacetamide] + CCOC(=O)CC#N
[1], φ1 = 1
Details	mass density [kg/m3]	speed of sound [m/s]
303.15 K	951.3	1367
308.15 K	945.9	1362
313.15 K	943.6	1334
318.15 K	939.9	1319

CCOC(=O)CCl [ethyl chloroethanoate] + CNC(C)=O
[1]
Details	mass density [kg/m3]	speed of sound [m/s]
303.15 K, φ2 = 0	1139.29	1229
303.15 K, φ2 = 0.0547	1128.33	1238
303.15 K, φ2 = 0.154	1110.27	1252
303.15 K, φ2 = 0.2473	1093.79	1265
303.15 K, φ2 = 0.2903	1085.92	1272
303.15 K, φ2 = 0.4356	1059.31	1293
303.15 K, φ2 = 0.5321	1041.12	1305
303.15 K, φ2 = 0.6203	1024.32	1317
303.15 K, φ2 = 0.7118	1006.88	1329
303.15 K, φ2 = 0.8656	977.31	1350
308.15 K, φ2 = 0	1132.5	1212
308.15 K, φ2 = 0.0547	1123.26	1221
308.15 K, φ2 = 0.154	1105.23	1235
308.15 K, φ2 = 0.2473	1088.2	1249
308.15 K, φ2 = 0.2902	1080.37	1256
308.15 K, φ2 = 0.4356	1053.83	1277
308.15 K, φ2 = 0.532	1036.02	1291
308.15 K, φ2 = 0.6202	1019.38	1304
308.15 K, φ2 = 0.7118	1002.05	1318
308.15 K, φ2 = 0.8656	972.28	1342
313.15 K, φ2 = 0	1125.9	1198
313.15 K, φ2 = 0.0545	1115.23	1207
313.15 K, φ2 = 0.1535	1098.23	1220
313.15 K, φ2 = 0.2466	1082.14	1233
313.15 K, φ2 = 0.2895	1074.53	1239
313.15 K, φ2 = 0.4347	1048.13	1259
313.15 K, φ2 = 0.5312	1030.46	1271
313.15 K, φ2 = 0.6194	1014.19	1283
313.15 K, φ2 = 0.7111	997.15	1296
313.15 K, φ2 = 0.8652	968.5	1317
318.15 K, φ2 = 0	1119.9	1177
318.15 K, φ2 = 0.0544	1109.19	1187
318.15 K, φ2 = 0.1533	1090.85	1202
318.15 K, φ2 = 0.2464	1073.98	1207
318.15 K, φ2 = 0.2892	1066.23	1212
318.15 K, φ2 = 0.4344	1040.02	1231
318.15 K, φ2 = 0.5308	1022.75	1244
318.15 K, φ2 = 0.6191	1007.06	1257
318.15 K, φ2 = 0.7108	990.68	1272
318.15 K, φ2 = 0.865	963.31	1296
